This is an account of results in patent US9346795B2, “Substituted sulfonamides useful as antiapoptotic Bcl inhibitors” (Bristol-Myers Squibb Company, priority 2011, dated 2016).

Molecules are shown by their SMILES.

Test [1] concerns the target Bcl-2 (Homo sapiens (Human), UniProt P10415). Nature of the test: Bcl-2/Bim Fluorescence Polarization Assay (FPA). The class given is binding. On the technique in general: Polarisation of emitted light reports the rotation of a fluorescent probe.
Test [2] concerns the target Bcl-xL (Homo sapiens (Human), UniProt Q07817). Nature of the test: Bcl-xL/Bim Fluorescence Resonance Energy Transfer Assay (FRET). The test is classed as binding. The method, boiled down:
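Biotin-Bcl-xL was incubated with Bim and compound at eleven concentrations for 60 min at room temperature. Streptavidin-terbium detection was then added for 30 min in the dark, and FRET was read. IC50 values were obtained by non-linear regression.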

Sequence of Bcl-2 (P10415 whole entry): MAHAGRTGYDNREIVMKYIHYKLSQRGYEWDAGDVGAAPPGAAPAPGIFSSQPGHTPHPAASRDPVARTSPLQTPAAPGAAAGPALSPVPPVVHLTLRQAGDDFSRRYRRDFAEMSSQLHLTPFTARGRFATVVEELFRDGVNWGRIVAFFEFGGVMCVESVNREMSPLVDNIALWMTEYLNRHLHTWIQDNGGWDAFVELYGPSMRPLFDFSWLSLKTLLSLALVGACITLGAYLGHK
Sequence of Bcl-xL (Q07817 whole entry): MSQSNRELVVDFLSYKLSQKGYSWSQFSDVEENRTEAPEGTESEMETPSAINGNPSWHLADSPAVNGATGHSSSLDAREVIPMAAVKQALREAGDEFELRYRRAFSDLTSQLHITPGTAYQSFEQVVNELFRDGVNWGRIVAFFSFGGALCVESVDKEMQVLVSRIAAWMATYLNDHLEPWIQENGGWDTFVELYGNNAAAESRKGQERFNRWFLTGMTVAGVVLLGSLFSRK

What is called IC50 is the concentration needed to halve the response being measured. `CCCN(CCC)c1nn(-c2ccc(C(=O)NS(=O)(=O)c3ccc4cccc(Cl)c4c3)cc2C(=O)N2Cc3ccccc3C[C@H]2CO)c(C(F)(F)F)c1Cl` [Example 195, 4-(4-Chloro-3-(dipropylamino)-5-(trifluoromethyl)-1H-pyrazol-1-yl)-N-(8-chloronaphthalen-2-ylsulfonyl)-3-((S)-3-(hydroxymethyl)-1,2,3,4-tetrahydroisoquinoline-2-carbonyl)benzamide]: the IC50 was 30 nM in test [1] and 290 nM in test [2].
For the compound `CCCCN(CCCC)C(=O)c1nn(-c2ccc(C(=O)NS(=O)(=O)c3ccc4c(c3)c(I)cn4CC)cc2C(=O)N2CCc3ccccc3C2)c(C)c1Cl` [Example 84, N,N-dibutyl-4-chloro-1-(4-(1-ethyl-3-iodo-1H-indol-5-ylsulfonylcarbamoyl)-2-(1,2,3,4-tetrahydroisoquinoline-2-carbonyl)phenyl)-5-methyl-1H-pyrazole-3-carboxamide], the IC50 in test [1] was determined as 7.69 nM; in test [2] it was 80 nM.
In the same order, the values of `CCCCN(CCCC)C(=O)c1nn(-c2ccc(C(=O)NS(=O)(=O)c3ccc4ccc(Cl)cc4c3)cc2C(=O)N2CCc3ccccc3C2)c(C)c1Cl` [Example 10, N,N-dibutyl-4-chloro-1-(4-(7-chloronaphthalen-2-ylsulfonylcarbamoyl)-2-(1,2,3,4-tetrahydroisoquinoline-2-carbonyl)phenyl)-5-methyl-1H-pyrazole-3-carboxamide] are 90 nM and 90 nM.
In the same order, the values of `CCCCN(CCCC)c1nn(-c2ccc(C(=O)NS(=O)(=O)c3ccc4ccccc4c3)cc2C(=O)N2CCc3ccccc3C2)c(C)c1Cl` [Example 191, 4-(4-Chloro-3-(dibutylamino)-5-methyl-1H-pyrazol-1-yl)-N-(naphthalen-2-ylsulfonyl)-3-(1,2,3,4-tetrahydroisoquinoline-2-carbonyl)benzamide] are 260 nM and 690 nM.
The matching figures for `CCCCN(C(=O)c1nn(-c2ccc(C(=O)NS(=O)(=O)c3ccc4c(Cl)ccc(Br)c4c3)cc2C(=O)N2CCc3ccccc3C2)c(C)c1Cl)c1cccc(-c2ccc(Cl)cc2)c1` [Example 217, 1-(4-(8-bromo-5-chloronaphthalen-2-ylsulfonylcarbamoyl)-2-(1,2,3,4-tetrahydroisoquinoline-2-carbonyl)phenyl)-N-butyl-4-chloro-N-(4′-chlorobiphenyl-3-yl)-5-methyl-1H-pyrazole-3-carboxamide]: 10 nM and 70 nM.
For `CCCCN(CCCC)C(=O)c1nn(-c2ccc(C(=O)NS(=O)(=O)c3ccc4ccc(OCCCN5CCOCC5)cc4c3)cc2C(=O)N2CCc3ccccc3C2)c(C)c1Cl` [Example 34, N,N-dibutyl-4-chloro-5-methyl-1-(4-(7-(3-morpholinopropoxy)naphthalen-2-ylsulfonylcarbamoyl)-2-(1,2,3,4-tetrahydroisoquinoline-2-carbonyl)phenyl)-1H-pyrazole-3-carboxamide], the IC50 in test [1] amounted to 290 nM; in test [2], 40 nM.
In the same order, the values of `CCCCN(CCCC)C(=O)c1nn(-c2ccc(C(=O)NS(=O)(=O)c3cc(Br)c4c(c3)CCN4CC)cc2C(=O)N2Cc3ccccc3C[C@H]2CO)c(C)c1Cl` [Example 205, 1-(4-(7-bromo-1-ethylindolin-5-ylsulfonylcarbamoyl)-2-((S)-3-(hydroxymethyl)-1,2,3,4-tetrahydroisoquinoline-2-carbonyl)phenyl)-N,N-dibutyl-4-chloro-5-methyl-1H-pyrazole-3-carboxamide] are 9.15 nM and 8.85 nM.
The matching figures for `CCCN(CCC)c1nn(-c2ccc(C(=O)NS(=O)(=O)c3ccc4c(Cl)ccc(Br)c4c3)cc2C(=O)N2Cc3ccccc3C[C@H]2CO)c(C)c1Cl` [Example 207, N-(8-bromo-5-chloronaphthalen-2-ylsulfonyl)-4-(4-chloro-3-(dipropylamino)-5-methyl-1H-pyrazol-1-yl)-3-((S)-3-(hydroxymethyl)-1,2,3,4-tetrahydroisoquinoline-2-carbonyl)benzamide]: 7.84 nM and 40 nM.
Regarding `CCCCN(CCCC)C(=O)c1nn(-c2ccc(C(=O)NS(=O)(=O)c3ccc4c(Cl)ccc(Cl)c4c3)cc2C(=O)N2CCc3ccccc3C2)c(C)c1Cl` [Example 44, N,N-dibutyl-4-chloro-1-(4-(5,8-dichloronaphthalen-2-ylsulfonylcarbamoyl)-2-(1,2,3,4-tetrahydroisoquinoline-2-carbonyl)phenyl)-5-methyl-1H-pyrazole-3-carboxamide], the IC50 in test [1] came out at 7.25 nM; in test [2], 30 nM.
In the same order, the values of `CCCCN(CCCC)C(=O)c1nn(-c2ccc(C(=O)NS(=O)(=O)c3ccc4cccc(Cl)c4c3)cc2C(=O)N2CCc3ccccc3C2)c(C)c1Cl` [Example 5, N,N-dibutyl-4-chloro-1-(4-(8-chloronaphthalen-2-ylsulfonylcarbamoyl)-2-(1,2,3,4-tetrahydroisoquinoline-2-carbonyl)phenyl)-5-methyl-1H-pyrazole-3-carboxamide] are 30 nM and 70 nM.
For `CCCCN(CCCC)C(=O)c1nn(-c2ccc(C(=O)NS(=O)(=O)c3ccc4ccc(OCc5ccccc5)cc4c3)cc2C(=O)N2CCc3ccccc3C2)c(C)c1Cl` [Example 18, 1-(4-(7-(benzyloxy)naphthalen-2-ylsulfonylcarbamoyl)-2-(1,2,3,4-tetrahydroisoquinoline-2-carbonyl)phenyl)-N,N-dibutyl-4-chloro-5-methyl-1H-pyrazole-3-carboxamide], the IC50 was 10 nM in test [1] and 30 nM in test [2].
For `CCCCN(CCCC)C(=O)c1nn(-c2ccc(C(=O)NS(=O)(=O)c3ccc4cccc(C#N)c4c3)cc2C(=O)N2CCc3ccccc3C2)c(C)c1Cl` [Example 8, N,N-dibutyl-4-chloro-1-(4-(8-cyanonaphthalen-2-ylsulfonylcarbamoyl)-2-(1,2,3,4-tetrahydroisoquinoline-2-carbonyl)phenyl)-5-methyl-1H-pyrazole-3-carboxamide], the IC50 in test [1] was 920 nM; in test [2] it was 20 nM.
In the same order, the values of `CCCCc1c(-c2ccc(C(=O)NS(=O)(=O)c3ccc4c(Cl)ccc(Br)c4c3)cc2C(=O)N2CCc3ccccc3C2)c(C(=O)OCC)nn1-c1ccc(Oc2cccc(Cl)c2)cc1` [Example 251, ethyl 4-(4-(8-bromo-5-chloronaphthalen-2-ylsulfonylcarbamoyl)-2-(1,2,3,4-tetrahydroisoquinoline-2-carbonyl)phenyl)-5-butyl-1-(4-(3-chlorophenoxy)phenyl)-1H-pyrazole-3-carboxylate] are 20 nM and 50 nM.
In the case of `CCCCN(CCCC)C(=O)c1nn(-c2ccc(C(=O)NS(=O)(=O)c3ccc4ccccc4c3)cc2C(=O)N2CCc3ccccc3C2)c(C)c1Cl` [Example 1, N,N-Dibutyl-4-chloro-5-methyl-1-(4-(naphthalen-2-ylsulfonylcarbamoyl)-2-(1,2,3,4-tetrahydroisoquinoline-2-carbonyl)phenyl)-1H-pyrazole-3-carboxamide], the IC50 in test [1] was found to be 30 nM; in test [2], 20 nM.
In the same order, the values of `CCCCN(Cc1ccc(Cl)c(Cl)c1)c1ncc(Cl)c(-c2ccc(C(=O)NS(=O)(=O)c3ccc4cccc(Cl)c4c3)cc2C(=O)N2CCc3ccccc3C2)n1` [Example 322, 4-(2-(Butyl (3,4-dichlorobenzyl)amino)-5-chloropyrimidin-4-yl)-N-(8-chloronaphthalen-2-ylsulfonyl)-3-(1,2,3,4-tetrahydroisoquinoline-2-carbonyl)benzamide] are 10 nM and 160 nM.
